In US20250099455A1, “TREATMENT FOR CONGESTIVE HEART FAILURE” (FibroGen, Inc., priority 2022, published 2025):

System: myocardial ischemia-induced heart failure (HFrEF)
Test: Rat model of ischemic HFrEF, Formula I and empagliflozin alone and in combination
Type: in vivo
Experimental: • Male Sprague Dawley rats • Ligation of left coronary artery for 30 minutes followed by reperfusion • Post-ligation recovery for 28 days • Cardiac function 28 days after ischemia-reperfusion using a Millar pressure-volume catheter inserted in the left ventricle via the carotid artery • Record pressure-volume loops over several cardiac cycles and derived cardiac function parameters A) Rat Model of Ischemic Heart Failure with Reduced Ejection Fraction (HFrEF)

SMILES: OC[C@H]1O[C@@H](c2ccc(Cl)c(Cc3ccc(O[C@H]4CCOC4)cc3)c2)[C@H](O)[C@@H](O)[C@@H]1O [empagliflozin, reference compound]
- improvement in ejection fraction: ~30%
- improvement in end systolic volume: ~30%
